{"source": "patent US9303064B2", "about": "“Peptide inhibiting matrix metalloproteanases activity and use thereof” (CAREGEN CO., LTD., priority 2011, dated 2016)", "system": "Hyaluronate lyase", "experiment": "Filler product injected into rat dorsal skin", "format": "in vivo", "conditions": "1-7 days, FIG. 6e", "experimental": "FIG. 6e represents effects on residence times of filler products when the filler product containing hyaluronate lyase and the peptide (SEQ ID NO:2) is injected to rat dorsal skin. The effects were determined at intervals of 1-7 days.\nHyaluronate lyase was artificially put into a commercial filler product at a concentration of 100 ug to induce degradation of hyaluronic acids, and then 200 ug peptides were treated. […] An assay using GPC column and an in vivo experiment using rats are performed. Control group was treated with hyaluronate lyase, and treatment group was co-treated hyaluronate lyase and each peptide. When the filler product was injected into rat skin, the degradation of hyaluronic acids inside the filler was inhibited by the treatment of peptides (FIG. 6e).", "data": [{"sequence": "MIPCYISSP (CG-Seperin) [SEQ ID NO:2]", "values": [{"measurement": "degradation of hyaluronic acids inside the filler injected into rat skin", "setting": "filler with hyaluronate lyase and peptide", "value": "hyaluronic acids degradation effect is excellent"}, {"measurement": "residence times of filler products", "setting": "versus only filler products", "value": "stayed for longer period"}]}]}
